# Results published in patent publication US20240122934A1, “COMPOSITIONS AND METHODS OF TREATMENT FOR INHIBITING CAPILLARY TUBE REGRESSION” (University of South Florida, priority 2019, published 2024).
# “Also recorded” adds a separate entry of the source.
# What was measured:
# Format in all cases: cell-based, human
# [1] = test system: EC sprouts and tubes; test: angiogenic sprouting assay (ECs invading from monolayer surface); settings: for EC tube regression by signaling-mimicking drugs: Frax486 2.5 μM, vinblastine 100 nM, 24 hr
# Procedure: (A) ECs were seeded onto a monolayer surface and then allowed to invade into the gels to form tubes over a 48 hr period. At this time, cultures were then treated with IL-1β or TNFα and in the absence or presence of FIST. Cultures were fixed after 24 hr, stained and photographed to visualize the monolayer surface and the underlying sprouts and tubes. (B) Cultures were established just like in A and then the Pak2 inhibitor, Frax486 (2.5 μM) or the microtubule depolymerizing agent, vinblastine (100 nM), were added to media in the presence or absence of FIST. Cultures were fixed after 24 hr, stained and photographed. Bar equals 200 μm.
# Studies to define the factors and signals that promote endothelial cell (EC) lumen and tube formation, EC sprouting and EC-pericyte tube co-assembly have been performed under serum-free defined conditions so that the functional role of individual molecules that regulate these processes can be assessed. Disclosed herein, the factors that control capillary regression are defined. Capillary regression is a process that has been largely neglected despite the likelihood that it may present a fundamental pathogenic feature of major human diseases where capillary disassembly and regression are known to occur (i.e. hypertension, diabetes, ischemic disease in many tissues, neurodegenerative diseases, and malignant cancer). […] EC tube networks were allowed to form for 48 hr. (vasculogenesis type of assay) and then added these agents in dose-response experiments, showing that they potently induce EC tube regression (at low ng levels) (FIG. 1). Real-time movies were performed to visualize these pro-regressive activities. This experimental approach has utilized assays that mimic vasculogenesis or angiogenic sprouting and these factors induce regression equally well in both assay systems. […] These studies have been performed primarily in 3D collagen matrices, but the same result is also observed in 3D fibrin matrices.
# [2] = test system: EC tube networks; test: 3D collagen EC tube regression assay; settings: for effect of added HDAC6 inhibitor on pharmacologic rescue: 10 μM added to FISSB2, mediators 10 ng/ml, thrombin 1 μg/ml; for effect of added HDAC6 inhibitor on pharmacologic rescue / EC tube regression (pro-regressive activity): 24 hr; for EC tube regression in screen of growth factors and cytokines: 40 and 10 ng/ml, 48 hr EC tube networks; for EC tube regression (pro-regressive activity): factor added to established 48 hr EC tube networks
# Procedure: (A) EC cultures with tube networks were established for 48 hr followed by the addition of indicated cytokines or thrombin (Thr) for 24 hr. IL-1β and IL-la were added at 1 ng/ml, TNFα at 3.16 ng/ml and thrombin at 1 μg/ml. Bars equal 100 or 200 μm. (B,C,D) EC tube networks were treated with the indicated cytokines and varying concentrations in dose-response analyses and in the presence or absence of thrombin added at 1 μg/ml. After 24 hr, cultures were fixed, stained and quantitated for EC lumen area per field. These curves are from a representative experiment using triplicate wells for each condition. The values (±SD) are derived from analyzed fields (n=15) where total lumen and tube area was measured. Asterisks indicate significance at p<0.05 compared to control and squares indicate significance at p<0.05 compared to the cytokine treatments alone.
# ECs (passages 3-6) and pericytes (passages 3-12) were cultured as previously described^49,50. THP-1 cells were cultured in RPMI-1640-20% FCS. THP-1-T macrophages were differentiated for 72 hr. with 50 ng/ml of phorbol ester in RPMI-20% FCS, and then treated for 48 hr. in RPMI-2% FCS prior to adding TLR ligands. THP-1-VT macrophages were induced to differentiate for 72 hr. with 10^-7 M vitamin D3 (Calcitriol) in RPMI-20% FCS, followed by 48 hr. with phorbol ester in RPMI-2% FCS prior to adding TLR ligands.
# (§1) ECs or ECs with pericytes were suspended in 3D collagen matrices and incubated at 37° C. in serum-free defined media as described^9,50,51. Recombinant factors or THP-1 conditioned media were added at the indicated doses to existing 48 or 72 hr. cultures with EC only or EC-pericyte tube networks, respectively. After 24 or 48 hr. for EC only or EC-pericyte tubes, respectively, cultures were fixed in 3% glutaraldehyde or 3% paraformaldehyde. EC tube areas were traced and quantitated as described. In some cases, neutralizing antibodies were added (10 μg/ml). For signaling experiments, lysates were prepared from control vs. regressing 3D cultures at different time points.
# [3] = test system: EC-pericyte tube networks; test: EC-pericyte co-culture regression assay; settings: added to 72 hr co-cultures
# Procedure: (A) EC-pericyte (GFP-labeled) co-cultures were established and allowed to form for 72 hr and at this time, the combination of IL-1β (10 ng/ml), TNFα (10 ng/ml) and thrombin (11 μg/ml) were added in combination compared to control and real-time movies were performed. Light and fluorescent image overlays over time are shown in representative fields. Arrowheads indicate clusters of pericytes that accumulate together during regression responses in response to these three factors in combination. After 48 hr, fixed cultures were stained for CD31 to detect ECs and fluorescence image overlays were performed. (B) The same set up was established as in A, except that each individual factor and combination of factors were added. After 48 hr, the cultures were fixed and stained for CD31. Confocal images were obtained, and fluorescence overlay images are shown.
# (A) EC-pericyte co-cultures were established for 72 hr, and then were left untreated or with IL-1β (10 ng/ml), TNFα (10 ng/ml), and thrombin (11 μg/ml) in combination. After 48 hr, cultures were fixed and stained with CD31, confocal microscopy and 3D reconstruction of the images allowed for an upright and side view. (B) EC-pericyte tube networks were treated with the indicated single and combined factors and after fixation, EC tube area was quantitated. […] The values (±SD) were obtained from analyzed fields (n=15) where total lumen and tube area was measured. Asterisks indicate increased significance at p<0.05 compared to control, the squares indicate decreased significance at p<0.05 relative to the single factor conditions and the triangle indicates significance at p<0.05 relative to the double factor conditions. (C) EC-pericyte tube networks were treated with indicated combinations of factors. After 48 hr, total GFP fluorescence per well was quantitated as a measure of pericyte number since they are GFP-labeled. […] Asterisks indicate significance at p<0.05 compared to control.
# as §1
# [4] = test system: EC tube networks; test: Western blots of lysates from regressing 3D EC cultures (regression signaling signature); settings: 24-hr. time course, compared to control EC tubes
# Procedure: (A,B) ECs tube networks were treated with the indicated factors vs. control and at different time points, lysates were prepared from the 3D cultures. Western blots were performed using the different indicated antibodies. (C) Schematic illustrating findings that define a capillary regression signaling signature.
# THP-T macrophages were treated with Pam3CSK4 (Pam) or LPS and conditioned medium was added at a 1:20 or 1:50 dilution, respectively, to EC tube networks. Control and IL10-treated cultures were compared with the conditioned medium treatments within the same experiment. At the indicated time points, lysates were obtained, and Western blots were performed with the indicated antibodies.
# as §1
molecule,measurement,setting,value
"CCn1c(=O)c(-c2ccc(Cl)cc2Cl)cc2cnc(Nc3ccc(N4CCNCC4)c(F)c3)nc21 [Frax486, reference compound]",EC tube regression by signaling-mimicking drugs,[1],led to marked regression
"C[C@@H](N)[C@H]1CC[C@H](C(=O)Nc2ccncc2)CC1 [Y27632, reference compound]",effect of adding drug to FISTSB on rescue,[2]; FISTSBY vs FISTSB,did not enhance the ability of FISTSB to rescue capillary regression
"O=C(CCCCCCC(=O)Nc1ccc([C@H]2O[C@@H](CSc3nc(-c4ccccc4)c(-c4ccccc4)o3)C[C@@H](c3ccc(CO)cc3)O2)cc1)NO [tubacin, reference compound]",effect of added HDAC6 inhibitor on pharmacologic rescue,[2],enhance the pharmacologic rescue of capillary regression induced by pro-inflammatory mediators
"CN1CCc2c(c3ccccc3n2Cc2ccc(C(=O)NO)cc2)C1 [tubastatin, reference compound]",effect of added HDAC6 inhibitor on pharmacologic rescue,[2],enhance the pharmacologic rescue of capillary regression induced by pro-inflammatory mediators
"CC[C@]1(O)C[C@@H]2CN(CCc3c([nH]c4ccccc34)[C@@](C(=O)OC)(c3cc4c(cc3OC)N(C)[C@H]3[C@@](O)(C(=O)OC)[C@H](OC(C)=O)[C@]5(CC)C=CCN6CC[C@]43[C@@H]65)C2)C1 [vinblastine, reference compound]",EC tube regression by signaling-mimicking drugs,[1],led to marked regression
IFNα,EC tube regression in screen of growth factors and cytokines,[2],did not have any activity
IFNγ: interferon gamma,EC tube regression in screen of growth factors and cytokines,[2],demonstrated significantly increased regression at both doses
"IL-1β: interleukin-1 beta, pro-inflammatory cytokine",degeneration of sprouts and EC monolayer,[1]; angiogenic sprouting system,"induce degeneration of the invading sprouts, but also the EC monolayer surface where the sprouts originated"
same,EC tube regression in EC-pericyte co-cultures,[3],"marked tube regression in response to each factor individually and, also in combination"
same,pericyte numbers,[3],an increase in pericyte numbers
same,ICAM-1 and VCAM-1 levels,[4],Strong upregulation of ICAM-1 and VCAM-1
same,"phospho-Pak2, phospho-cofilin, acetylated tubulin, procaspase3 levels",[4],"decreased levels of phospho-Pak2, phospho-cofilin, acetylated tubulin and procaspase3"
same,"phospho-p38, phospho-JNK, phospho-MLC2 levels",[4],"increased levels of phospho-p38, phospho-JNK, and phospho-MLC2"
same,EC tube regression in screen of growth factors and cytokines,[2],more potent pro-regressive factors than the other factors described herein
same,EC tube regression (pro-regressive activity),[2],directly cause capillary tube collapse and regression
IL-6: cytokine co-induced in macrophages along with IL-1 and TNF,EC tube regression (pro-regressive activity),[2],does not have pro-regressive activity; also recorded: had no regressive effect
IL-13: cytokine,EC tube regression in screen of growth factors and cytokines,[2],demonstrated significantly increased regression at both doses
TGFβ1: growth factor,EC tube regression in screen of growth factors and cytokines,[2],demonstrated significantly increased regression at both doses
"Light: pro-regressive factor identified in the cytokine screen (protein, UniProt O43557 83-240, looked up) Tumor necrosis factor ligand …: LIQERRSHEVNPAAHLTGANSSLTGSGGPLLWETQLGLAFLRGLSYHDGALVVTKAGYYYIYSKVQLGGVGCPLGLASTITHGLYKRTPRYPEELELLVSQQSPCGRATSSSRVWWDSSFLGGVVHLEAGEKVVVRVLDERLVRLRDGTRSYFGAFMV",EC tube regression in screen of growth factors and cytokines,[2],demonstrated significantly increased regression at both doses
"IL-la: IL-1 isoform, pro-regressive cytokine (protein, UniProt P01583 113-271, looked up) Interleukin-1 alpha: SAPFSFLSNVKYNFMRIIKYEFILNDALNQSIIRANDQYLTAAALHNLDEAVKFDMGAYKSSKDDAKITVILRISKTQLYVTAQDEDQPVLLKEMPEIPKTITGSETNLLFFWETHGTKNYFTSVAHPNLFIATKQDYWVCLAGGPPSITDFQILENQA",EC tube regression (pro-regressive activity),[2],directly cause capillary tube collapse and regression; also recorded: powerful ability to induce EC tube regression
"TGFβ2: growth factor (protein, UniProt P61812 303-414, looked up) Transforming growth factor …: ALDAAYCFRNVQDNCCLRPLYIDFKRDLGWKWIHEPKGYNANFCAGACPYLWSSDTQHSRVLSLYNTINPEASASPCCVSQDLEPLTILYYIGKTPKIEQLSNMIVKSCKCS",EC tube regression in screen of growth factors and cytokines,[2],demonstrated significantly increased regression at both doses
"IL-4: interleukin-4 (protein, UniProt P05112 25-153, looked up) Interleukin-4: HKCDITLQEIIKTLNSLTEQKTLCTELTVTDIFAASKNTTEKETFCRAATVLRQFYSHHEKDTRCLGATAQQFHRHKQLIRFLKRLDRNLWGLAGLNSCPVKEANQSTLENFLERLKTIMREKYSKCSS",EC tube regression in screen of growth factors and cytokines,[2],demonstrated significantly increased regression at both doses
"BMP-10: growth factor (protein, UniProt O95393 317-424, looked up) Bone morphogenetic protein 10: NAKGNYCKRTPLYIDFKEIGWDSWIIAPPGYEAYECRGVCNYPLAEHLTPTKHAIIQALVHLKNSQKASKACCVPTKLEPISILYLDKGVVTYKFKYEGMAVSECGCR",EC tube regression in screen of growth factors and cytokines,[2],demonstrated significantly increased regression at both doses
"BMP-9: growth factor (protein, UniProt Q9UK05 320-429, looked up) Growth/differentiation factor …: SAGAGSHCQKTSLRVNFEDIGWDSWIIAPKEYEAYECKGGCFFPLADDVTPTKHAIVQTLVHLKFPTKVGKACCVPTKLSPISVLYKDDMGVPTLKYHYEGMSVAECGCR",EC tube regression in screen of growth factors and cytokines,[2],demonstrated significantly increased regression at both doses
